# According to patent US10870647B2, “Imidazopyridine derivative, method for preparing same, and pharmaceutical composition containing same as active ingredient for preventing or treating cancer” (DAEGU-GYEONGBUK MEDICAL INNOVATION FOUNDATION, priority 2016, dated 2020):
# What was measured:
# Assay in all cases: Kinase selectivity, scanMAX Kinase assay panel (DiscoverX), % control at 1 uM
# Type in all cases: binding
# [1] = molecular target: T1, scanMAX Kinase assay panel (Homo sapiens, UniProt P27037); details: ACVR2A; 1 uM; read-out: Percent Control (%)
# T1 construct: purchased DiscoverX
# In short: (§1)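 1 uM cpd (DMSO) per kinase; % ctrl = [cpd − pos ctrl]/[neg ctrl − pos ctrl] × 100; hit if <35.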
# [2] = molecular target: T2, scanMAX Kinase assay panel (Homo sapiens, UniProt P22455); details: FGFR4; 1 uM; read-out: Percent Control (%)
# T2 construct: purchased DiscoverX
# In short: as §1
# [3] = molecular target: T3, scanMAX Kinase assay panel (Homo sapiens, UniProt P68400); details: CSNK2A1; 1 uM; read-out: Percent Control (%)
# T3 construct: purchased DiscoverX
# In short: as §1
# [4] = molecular target: T4, scanMAX Kinase assay panel (Homo sapiens, UniProt Q9HBY8); details: SGK2; 1 uM; read-out: Percent Control (%)
# T4 construct: purchased DiscoverX
# T4 sequence (Q9HBY8 1-367): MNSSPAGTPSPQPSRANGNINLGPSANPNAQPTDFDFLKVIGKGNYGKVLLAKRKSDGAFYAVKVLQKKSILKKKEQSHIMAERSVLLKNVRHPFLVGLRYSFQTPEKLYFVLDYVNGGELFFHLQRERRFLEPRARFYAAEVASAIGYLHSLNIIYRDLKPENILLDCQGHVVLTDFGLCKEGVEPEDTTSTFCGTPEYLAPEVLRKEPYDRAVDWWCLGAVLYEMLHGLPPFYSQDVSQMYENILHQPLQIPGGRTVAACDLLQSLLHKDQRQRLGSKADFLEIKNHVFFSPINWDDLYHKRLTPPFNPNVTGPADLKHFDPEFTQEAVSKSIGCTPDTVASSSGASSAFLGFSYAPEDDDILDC
# In short: as §1
# [5] = molecular target: T5, scanMAX Kinase assay panel (Homo sapiens, UniProt Q9NRH2); details: SNRK; 1 uM; read-out: Percent Control (%)
# T5 construct: purchased DiscoverX
# T5 sequence (Q9NRH2 1-765): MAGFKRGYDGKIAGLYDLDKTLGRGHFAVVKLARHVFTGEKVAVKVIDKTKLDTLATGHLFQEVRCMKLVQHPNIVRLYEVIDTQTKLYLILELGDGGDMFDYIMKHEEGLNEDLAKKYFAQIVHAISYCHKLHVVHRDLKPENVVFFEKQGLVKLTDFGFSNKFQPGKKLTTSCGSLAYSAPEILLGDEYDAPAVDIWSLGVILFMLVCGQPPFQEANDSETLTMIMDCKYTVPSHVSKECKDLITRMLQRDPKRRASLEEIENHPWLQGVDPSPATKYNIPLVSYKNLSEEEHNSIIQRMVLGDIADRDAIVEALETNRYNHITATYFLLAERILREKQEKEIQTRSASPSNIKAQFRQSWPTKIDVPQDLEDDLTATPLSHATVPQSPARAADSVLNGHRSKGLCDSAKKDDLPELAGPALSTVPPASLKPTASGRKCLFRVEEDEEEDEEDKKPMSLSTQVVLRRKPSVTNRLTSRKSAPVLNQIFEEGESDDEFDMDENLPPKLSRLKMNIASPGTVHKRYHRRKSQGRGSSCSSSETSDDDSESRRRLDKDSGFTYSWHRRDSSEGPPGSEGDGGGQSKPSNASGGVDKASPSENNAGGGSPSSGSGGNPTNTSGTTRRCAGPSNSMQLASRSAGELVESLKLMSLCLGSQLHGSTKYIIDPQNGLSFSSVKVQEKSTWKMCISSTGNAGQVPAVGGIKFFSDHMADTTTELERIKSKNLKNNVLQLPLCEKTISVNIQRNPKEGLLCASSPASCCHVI
# In short: as §1
# [6] = molecular target: T6, scanMAX Kinase assay panel (Homo sapiens, UniProt P48736); details: PIK3CG; 1 uM; read-out: Percent Control (%)
# T6 construct: purchased DiscoverX
# In short: as §1
# [7] = molecular target: T7, scanMAX Kinase assay panel (Homo sapiens, UniProt O95835); details: LATS1; 1 uM; read-out: Percent Control (%)
# T7 construct: purchased DiscoverX
# T7 sequence (O95835 1-1130): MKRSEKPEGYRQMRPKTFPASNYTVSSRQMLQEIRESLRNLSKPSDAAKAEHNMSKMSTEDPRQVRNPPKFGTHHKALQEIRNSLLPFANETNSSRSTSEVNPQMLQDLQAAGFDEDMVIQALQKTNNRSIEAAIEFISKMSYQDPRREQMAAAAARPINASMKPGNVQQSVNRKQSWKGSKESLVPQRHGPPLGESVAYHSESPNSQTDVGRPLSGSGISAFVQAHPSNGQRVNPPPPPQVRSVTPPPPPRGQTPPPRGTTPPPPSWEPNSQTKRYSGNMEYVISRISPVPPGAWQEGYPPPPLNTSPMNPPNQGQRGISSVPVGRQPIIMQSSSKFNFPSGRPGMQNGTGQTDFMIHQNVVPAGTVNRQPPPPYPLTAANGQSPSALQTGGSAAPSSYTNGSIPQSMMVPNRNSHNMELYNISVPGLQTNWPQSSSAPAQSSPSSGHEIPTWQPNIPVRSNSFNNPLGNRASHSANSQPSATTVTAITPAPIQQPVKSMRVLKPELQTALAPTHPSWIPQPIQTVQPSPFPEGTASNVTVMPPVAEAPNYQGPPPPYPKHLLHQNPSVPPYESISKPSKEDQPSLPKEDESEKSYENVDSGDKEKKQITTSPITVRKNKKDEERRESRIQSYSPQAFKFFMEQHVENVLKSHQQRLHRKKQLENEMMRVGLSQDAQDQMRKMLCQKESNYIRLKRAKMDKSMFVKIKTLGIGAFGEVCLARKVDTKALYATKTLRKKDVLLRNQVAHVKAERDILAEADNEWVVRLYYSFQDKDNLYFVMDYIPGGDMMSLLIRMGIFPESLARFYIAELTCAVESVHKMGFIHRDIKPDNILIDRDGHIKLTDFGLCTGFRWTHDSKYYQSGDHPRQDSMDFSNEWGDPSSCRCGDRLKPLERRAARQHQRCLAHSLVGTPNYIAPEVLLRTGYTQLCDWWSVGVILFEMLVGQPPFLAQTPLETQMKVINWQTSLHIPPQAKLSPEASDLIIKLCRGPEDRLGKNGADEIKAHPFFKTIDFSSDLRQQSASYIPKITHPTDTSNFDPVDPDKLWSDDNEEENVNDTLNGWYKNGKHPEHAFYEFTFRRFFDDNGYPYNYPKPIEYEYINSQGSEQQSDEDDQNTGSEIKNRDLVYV
# In short: as §1
# T6 sequence (P48736 whole entry): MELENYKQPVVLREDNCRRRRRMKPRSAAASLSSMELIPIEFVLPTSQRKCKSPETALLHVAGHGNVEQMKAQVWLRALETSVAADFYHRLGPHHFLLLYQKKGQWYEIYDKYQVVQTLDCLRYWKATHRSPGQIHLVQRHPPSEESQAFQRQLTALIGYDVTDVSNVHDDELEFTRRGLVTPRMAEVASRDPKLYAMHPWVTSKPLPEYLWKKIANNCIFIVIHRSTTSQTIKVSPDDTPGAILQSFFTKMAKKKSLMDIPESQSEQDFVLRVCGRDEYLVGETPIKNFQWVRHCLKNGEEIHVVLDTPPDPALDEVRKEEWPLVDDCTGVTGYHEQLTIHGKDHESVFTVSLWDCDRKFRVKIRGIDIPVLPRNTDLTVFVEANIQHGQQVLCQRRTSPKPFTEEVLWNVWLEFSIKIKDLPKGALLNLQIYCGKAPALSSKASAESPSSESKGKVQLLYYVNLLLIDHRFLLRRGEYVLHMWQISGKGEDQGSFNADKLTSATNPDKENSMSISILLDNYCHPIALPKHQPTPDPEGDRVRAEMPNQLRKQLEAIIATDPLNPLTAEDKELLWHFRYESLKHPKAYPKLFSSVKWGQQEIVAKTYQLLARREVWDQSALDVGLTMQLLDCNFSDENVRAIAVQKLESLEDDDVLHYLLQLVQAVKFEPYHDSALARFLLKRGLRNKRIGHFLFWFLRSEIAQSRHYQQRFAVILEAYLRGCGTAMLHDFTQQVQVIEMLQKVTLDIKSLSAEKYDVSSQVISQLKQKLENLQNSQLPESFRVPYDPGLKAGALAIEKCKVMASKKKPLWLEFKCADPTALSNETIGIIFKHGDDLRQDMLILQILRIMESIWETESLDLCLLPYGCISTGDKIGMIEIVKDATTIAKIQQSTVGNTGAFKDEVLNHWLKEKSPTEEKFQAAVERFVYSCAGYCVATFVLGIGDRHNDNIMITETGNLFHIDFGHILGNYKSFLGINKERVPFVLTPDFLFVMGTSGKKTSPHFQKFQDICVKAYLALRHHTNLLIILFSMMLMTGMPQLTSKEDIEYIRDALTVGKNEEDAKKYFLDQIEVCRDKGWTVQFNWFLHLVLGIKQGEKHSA
# T1 sequence (P27037 20-513): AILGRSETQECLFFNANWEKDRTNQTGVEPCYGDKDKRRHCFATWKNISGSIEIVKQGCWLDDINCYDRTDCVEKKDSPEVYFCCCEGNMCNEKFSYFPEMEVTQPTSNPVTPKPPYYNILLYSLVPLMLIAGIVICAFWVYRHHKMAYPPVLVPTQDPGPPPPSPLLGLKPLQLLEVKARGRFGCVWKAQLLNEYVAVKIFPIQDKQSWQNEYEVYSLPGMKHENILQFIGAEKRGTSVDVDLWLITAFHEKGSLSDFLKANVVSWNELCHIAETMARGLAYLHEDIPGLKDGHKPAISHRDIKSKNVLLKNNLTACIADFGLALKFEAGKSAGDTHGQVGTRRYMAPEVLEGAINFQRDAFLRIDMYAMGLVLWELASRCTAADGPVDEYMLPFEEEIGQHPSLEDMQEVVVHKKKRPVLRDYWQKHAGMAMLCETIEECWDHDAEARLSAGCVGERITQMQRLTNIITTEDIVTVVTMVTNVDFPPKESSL
# T2 sequence (P22455 22-802): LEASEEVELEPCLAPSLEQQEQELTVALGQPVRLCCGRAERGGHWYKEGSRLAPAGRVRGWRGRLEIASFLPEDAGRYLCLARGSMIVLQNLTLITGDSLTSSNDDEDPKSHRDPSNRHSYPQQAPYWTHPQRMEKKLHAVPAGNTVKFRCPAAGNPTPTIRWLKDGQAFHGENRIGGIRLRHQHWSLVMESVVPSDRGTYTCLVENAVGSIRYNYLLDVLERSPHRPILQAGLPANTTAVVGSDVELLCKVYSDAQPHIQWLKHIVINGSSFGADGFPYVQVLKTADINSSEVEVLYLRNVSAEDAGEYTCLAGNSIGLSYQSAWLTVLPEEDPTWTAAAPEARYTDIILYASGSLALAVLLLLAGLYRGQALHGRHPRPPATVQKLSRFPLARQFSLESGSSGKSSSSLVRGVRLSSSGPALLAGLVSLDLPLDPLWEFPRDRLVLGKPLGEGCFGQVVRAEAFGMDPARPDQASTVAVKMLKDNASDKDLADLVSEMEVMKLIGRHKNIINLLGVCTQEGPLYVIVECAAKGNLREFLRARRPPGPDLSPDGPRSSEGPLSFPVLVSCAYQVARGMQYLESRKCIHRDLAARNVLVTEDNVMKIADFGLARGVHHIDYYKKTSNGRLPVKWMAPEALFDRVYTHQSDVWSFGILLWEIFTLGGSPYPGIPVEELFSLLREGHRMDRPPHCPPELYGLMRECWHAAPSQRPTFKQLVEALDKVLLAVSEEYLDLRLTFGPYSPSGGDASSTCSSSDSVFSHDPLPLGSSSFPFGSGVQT
# T3 sequence (P68400 whole entry): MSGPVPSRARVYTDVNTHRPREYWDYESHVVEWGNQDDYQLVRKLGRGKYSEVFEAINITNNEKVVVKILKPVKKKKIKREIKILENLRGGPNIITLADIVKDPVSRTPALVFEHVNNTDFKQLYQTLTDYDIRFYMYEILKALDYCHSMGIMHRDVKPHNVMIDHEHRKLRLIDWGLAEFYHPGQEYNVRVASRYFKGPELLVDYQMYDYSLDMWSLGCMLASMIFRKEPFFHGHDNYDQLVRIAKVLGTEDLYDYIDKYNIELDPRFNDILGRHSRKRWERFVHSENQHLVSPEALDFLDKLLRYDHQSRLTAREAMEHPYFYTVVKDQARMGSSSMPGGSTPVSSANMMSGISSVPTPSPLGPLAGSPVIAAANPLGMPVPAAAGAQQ
Structure (SMILES),remaining binding at 1 µM [1] [%],remaining binding at 1 µM [2] [%],remaining binding at 1 µM [3] [%],remaining binding at 1 µM [4] [%],remaining binding at 1 µM [5] [%],remaining binding at 1 µM [6] [%],remaining binding at 1 µM [7] [%]
"Cc1ccc(C(=O)Nc2ccc(CN3CCN(C)CC3)c(C(F)(F)F)c2)cc1C#Cc1cnc2c(Nc3cnn(C)c3)cccn12 [Example 1, 4-methyl-3-((8-((1-methyl-1H-pyrazol-4-yl)amino)imidazo[1,2-a]pyridin-3-yl)ethynyl)-N-(4-((4-methylpiperazin-1-yl)methyl)-3-(trifluoromethyl)phenyl)benzamide]",95,0,83,84,84,100,40
"Cc1cn(-c2cc(NC(=O)c3ccc(C)c(C#Cc4cnc5c(Nc6cnn(C)c6)cccn45)c3)cc(C(F)(F)F)c2)cn1 [Example 12, 4-methyl-N-(3-(4-methyl-1H-imidazol-1-yl)-5-(trifluoromethyl)phenyl)-3-((8-((1-methyl-1H-pyrazol-4-yl)amino)imidazo[1,2-a]pyridin-3-yl)ethynyl)benzamide]",100,32,100,100,100,100,96
Cc1ccc(NC(=O)C2(C(=O)Nc3ccc(F)cc3)CC2)cc1C#Cc1cnc2c(Nc3cnn(C(C)C)c3)cccn12 [Example 78],100,100,100,100,95,100,82
